In ChEMBL document CHEMBL4270599, “Synthesis of a 3'-C-ethynyl-β-d-ribofuranose purine nucleoside library: Discovery of C7-deazapurine analogs as potent antiproliferative nucleosides” (Eur J Med Chem, 2018):

Key:
Type in all cases: functional
SF-268 = test: Growth inhibition of human SF268 cells assessed as cell growth at 10^-4 M incubated for 48 hrs by sulforhodamine B assay relative to control; details: SF-268, 48 h, read-out: Activity
EKVX = test: Growth inhibition of human EKVX cells assessed as cell growth at 10^-4 M incubated for 48 hrs by sulforhodamine B assay relative to control; details: read-out: Activity
OVCAR-8 [1] = test: Growth inhibition of human OVCAR8 cells assessed as cell growth at 10^-4 M incubated for 48 hrs by sulforhodamine B assay relative to control; details: OVCAR-8, 48 h, read-out: Activity
SF-539 = test: Growth inhibition of human SF539 cells assessed as cell growth at 10^-4 M incubated for 48 hrs by sulforhodamine B assay relative to control; details: SF-539, 48 h, read-out: Activity
SK-MEL-5 = test: Growth inhibition of human SK-MEL-5 cells assessed as cell growth at 10^-4 M incubated for 48 hrs by sulforhodamine B assay relative to control; details: SK-MEL-5, 48 h, read-out: Activity
SK-MEL-2 [2] = test: Growth inhibition of human SK-MEL-2 cells assessed as cell growth at 10^-4 M incubated for 48 hrs by sulforhodamine B assay relative to control; details: SK-MEL-2, 48 h, read-out: Activity
HCC 2998 [3] = test: Growth inhibition of human HCC2998 cells assessed as cell growth at 10^-4 M incubated for 48 hrs by sulforhodamine B assay relative to control; details: HCC 2998, 48 h, read-out: Activity
NCI-H522 [4] = test: Growth inhibition of human NCI-H522 cells assessed as cell growth at 10^-5 M incubated for 48 hrs by sulforhodamine B assay relative to control; details: NCI-H522, 48 h, read-out: Activity
NCI-H23 = test: Growth inhibition of human NCI-H23 cells assessed as cell growth at 10^-4 M incubated for 48 hrs by sulforhodamine B assay relative to control; details: NCI-H23, 48 h, read-out: Activity
A498 = test: Growth inhibition of human A498 cells assessed as cell growth at 10^-5 M incubated for 48 hrs by sulforhodamine B assay relative to control; details: A498, 48 h, read-out: Activity
SNB-75 = test: Growth inhibition of human SNB75 cells assessed as cell growth at 10^-5 M incubated for 48 hrs by sulforhodamine B assay relative to control; details: SNB-75, 48 h, read-out: Activity
OVCAR-8 [5] = test: Growth inhibition of human OVCAR8 cells assessed as cell growth at 10^-5 M incubated for 48 hrs by sulforhodamine B assay relative to control; details: OVCAR-8, 48 h, read-out: Activity
RPMI-8226 [6] = test: Growth inhibition of human RPMI8226 cells assessed as cell growth at 10^-5 M incubated for 48 hrs by sulforhodamine B assay relative to control; details: RPMI-8226, 48 h, read-out: Activity
T47D = test: Growth inhibition of human T47D cells assessed as cell growth at 10^-5 M incubated for 48 hrs by sulforhodamine B assay relative to control; details: read-out: Activity
NCI-H460 = test: Growth inhibition of human NCI-H460 cells assessed as cell growth at 10^-4 M incubated for 48 hrs by sulforhodamine B assay relative to control; details: NCI-H460, 48 h, read-out: Activity
HL-60(TB) = test: Growth inhibition of human HL-60(TB) cells assessed as cell growth at 10^-4 M incubated for 48 hrs by sulforhodamine B assay relative to control; details: HL-60, 48 h, read-out: Activity
OVCAR-3 = test: Growth inhibition of human OVCAR3 cells assessed as cell growth at 10^-5 M incubated for 48 hrs by sulforhodamine B assay relative to control; details: OVCAR-3, 48 h, read-out: Activity
HCC 2998 [7] = test: Growth inhibition of human HCC2998 cells assessed as cell growth at 10^-5 M incubated for 48 hrs by sulforhodamine B assay relative to control; details: HCC 2998, 48 h, read-out: Activity
NCI-H522 [8] = test: Growth inhibition of human NCI-H522 cells assessed as cell growth at 10^-4 M incubated for 48 hrs by sulforhodamine B assay relative to control; details: NCI-H522, 48 h, read-out: Activity
MDA-MB-435 = test: Growth inhibition of human MDA-MB-435 cells assessed as cell growth at 10^-4 M incubated for 48 hrs by sulforhodamine B assay relative to control; details: MDA-MB-435, 48 h, read-out: Activity
UO-31 = test: Growth inhibition of human UO31 cells assessed as cell growth at 10^-5 M incubated for 48 hrs by sulforhodamine B assay relative to control; details: UO-31, 48 h, read-out: Activity
MDA-MB-468 = test: Growth inhibition of human MDA-MB-468 cells assessed as cell growth at 10^-6 M incubated for 48 hrs by sulforhodamine B assay relative to control; details: MDA-MB-468, 48 h, read-out: Activity
SK-MEL-2 [9] = test: Growth inhibition of human SK-MEL-2 cells assessed as cell growth at 10^-5 M incubated for 48 hrs by sulforhodamine B assay relative to control; details: SK-MEL-2, 48 h, read-out: Activity
NCI-H322M = test: Growth inhibition of human NCI-H322M cells assessed as cell growth at 10^-4 M incubated for 48 hrs by sulforhodamine B assay relative to control; details: read-out: Activity
COLO 205 = test: Growth inhibition of human COLO205 cells assessed as cell growth at 10^-4 M incubated for 48 hrs by sulforhodamine B assay relative to control; details: COLO 205, 48 h, read-out: Activity
HOP-92 = test: Growth inhibition of human HOP92 cells assessed as cell growth at 10^-5 M incubated for 48 hrs by sulforhodamine B assay relative to control; details: HOP-92, 48 h, read-out: Activity
SK-MEL-28 = test: Growth inhibition of human SK-MEL-28 cells assessed as cell growth at 10^-4 M incubated for 48 hrs by sulforhodamine B assay relative to control; details: SK-MEL-28, 48 h, read-out: Activity
786-0 [10] = test: Growth inhibition of human 786-0 cells assessed as cell growth at 10^-5 M incubated for 48 hrs by sulforhodamine B assay relative to control; details: 786-0, 48 h, read-out: Activity
RXF 393 = test: Growth inhibition of human RXF393 cells assessed as cell growth at 10^-5 M incubated for 48 hrs by sulforhodamine B assay relative to control; details: RXF 393, 48 h, read-out: Activity
RPMI-8226 [11] = test: Growth inhibition of human RPMI8226 cells assessed as cell growth at 10^-4 M incubated for 48 hrs by sulforhodamine B assay relative to control; details: RPMI-8226, 48 h, read-out: Activity
LOX IMVI = test: Growth inhibition of human LOXIMVI cells assessed as cell growth at 10^-5 M incubated for 48 hrs by sulforhodamine B assay relative to control; details: read-out: Activity
786-0 [12] = test: Growth inhibition of human 786-0 cells assessed as cell growth at 10^-4 M incubated for 48 hrs by sulforhodamine B assay relative to control; details: 786-0, 48 h, read-out: Activity
HOP-62 = test: Growth inhibition of human HOP62 cells assessed as cell growth at 10^-5 M incubated for 48 hrs by sulforhodamine B assay relative to control; details: HOP-62, 48 h, read-out: Activity

Structure (SMILES): C#C[C@@]1(O)[C@@H](CO)O[C@@H](n2cc(I)c3c(N)ncnc32)[C@@H]1O
- growth at 100 µM (SF-268): -7%

Structure (SMILES): C#C[C@@]1(O)[C@@H](CO)O[C@@H](n2ccc3c(N)ncnc32)[C@@H]1O
- growth at 100 µM (EKVX): -26%
- growth at 100 µM (OVCAR-8 [1]): -65%
- growth at 100 µM (SF-539): -82%
- growth at 100 µM (SK-MEL-5): -99%
- growth at 100 µM (SK-MEL-2 [2]): -34%
- growth at 100 µM (HCC 2998 [3]): -78%
- growth at 10 µM (NCI-H522 [4]): -21%
- growth at 100 µM (NCI-H23): -35%
- growth at 10 µM (A498): -60%
- growth at 10 µM (SNB-75): -64%
- growth at 10 µM (OVCAR-8 [5]): -32%
- growth at 10 µM (RPMI-8226 [6]): 7%
- growth at 10 µM (T47D): -61%
- growth at 100 µM (NCI-H460): -13%
- growth at 100 µM (HL-60(TB)): -38%
- growth at 10 µM (OVCAR-3): 3%
- growth at 10 µM (HCC 2998 [7]): -76%
- growth at 100 µM (SF-268): -8%
- growth at 100 µM (NCI-H522 [8]): -42%
- growth at 100 µM (MDA-MB-435): -76%
- growth at 10 µM (UO-31): -55%
- growth at 1 µM (MDA-MB-468): 64%
- growth at 10 µM (SK-MEL-2 [9]): -15%
- growth at 100 µM (NCI-H322M): -65%
- growth at 100 µM (COLO 205): -72%
- growth at 10 µM (HOP-92): -29%
- growth at 100 µM (SK-MEL-28): -47%
- growth at 10 µM (786-0 [10]): -18%
- growth at 10 µM (RXF 393): -45%
- growth at 100 µM (RPMI-8226 [11]): 2%
- growth at 10 µM (LOX IMVI): -87%
- growth at 100 µM (786-0 [12]): -95%
- growth at 10 µM (HOP-62): -9%

Structure (SMILES): C#C[C@@]1(O)[C@@H](CO)O[C@@H](n2cc(F)c3c(N)ncnc32)[C@@H]1O
- growth at 100 µM (EKVX): -10%
- growth at 100 µM (OVCAR-8 [1]): -27%
- growth at 100 µM (SF-539): -39%
- growth at 100 µM (SK-MEL-5): -93%
- growth at 100 µM (SK-MEL-2 [2]): -36%
- growth at 100 µM (HCC 2998 [3]): -71%
- growth at 10 µM (NCI-H522 [4]): -24%
- growth at 100 µM (NCI-H23): -25%
- growth at 10 µM (A498): -77%
- growth at 10 µM (SNB-75): -90%
- growth at 10 µM (OVCAR-8 [5]): -12%
- growth at 10 µM (RPMI-8226 [6]): -2%
- growth at 10 µM (T47D): -39%
- growth at 100 µM (NCI-H460): -38%
- growth at 100 µM (HL-60(TB)): -32%
- growth at 10 µM (OVCAR-3): 5%
- growth at 10 µM (HCC 2998 [7]): -45%
- growth at 100 µM (NCI-H522 [8]): -40%
- growth at 100 µM (MDA-MB-435): -63%
- growth at 10 µM (UO-31): -36%
- growth at 1 µM (MDA-MB-468): 13%
- growth at 10 µM (SK-MEL-2 [9]): -26%
- growth at 100 µM (NCI-H322M): -30%
- growth at 100 µM (COLO 205): -63%
- growth at 10 µM (HOP-92): -33%
- growth at 100 µM (SK-MEL-28): 19%
- growth at 10 µM (786-0 [10]): -52%
- growth at 10 µM (RXF 393): -46%
- growth at 100 µM (RPMI-8226 [11]): -21%
- growth at 10 µM (LOX IMVI): -78%
- growth at 100 µM (786-0 [12]): -36%
- growth at 10 µM (HOP-62): -4%
